Each structure is given as a SMILES string. “And” between values parts separate entries of the source, which are not always exact repeats. Equal values may be shown once.

For assay [1], the system named is M230L-RTV. Nature of the assay: Phenotypic susceptibility assay, M230L-RTV. Particulars: site-directed M230L alone. The assay is classed as cell-based, HIV-1. The source says: (§1) The resistance test vectors containing a functional luciferase gene cassette were constructed and host cells were transfected with the resistance test vector DNA. The resistant test vectors contained patient-derived reverse transcriptase and protease sequences that were either susceptible or resistant to the antiretroviral agents, such as nucleoside reverse transcriptase inhibitors, (NRTIs) non-nucleoside reverse transcriptase inhibitors […] protease inhibitors. The resistance test vector viral particles produced by transfecting the resistance test vector DNA into host cells, either in the presence or absence of PRIs, were used to infect target host cells grown either in the absence of NRTIs or NNRTIs, or in the presence of increasing concentrations of the drug. The amount of luciferase activity produced in infected target host cells in the presence of varying concentrations of drug was compared to the amount of luciferase produced in infected target host cells in the absence of drug. “Drug resistance” was measured as the amount of drug required to inhibit by 50% the luciferase activity detected in the absence of drug (inhibitory concentration 50%, IC50). The IC50 values were determined by plotting percent drug inhibition vs. log10 drug concentration. Stimulation of viral replication was measured as the percent increase in luciferase activity detected when infection occurs in the presence of drug as compared to in the absence of drug.
(§2) Host cells were seeded in 10-cm-diameter dishes and were transfected several days after plating with resistance test vector plasmid DNA and the envelope expression vector. Transfections were performed using a calcium-phosphate precipitation procedure. The cell culture media containing the DNA precipitate was replaced with fresh medium, from one to 24 hours, after transfection. Cell culture media containing resistance test vector viral particles was harvested one to four days after transfection and was passed through a […] filter before being used to infect target host cells, or being stored at −80° C. HIV capsid protein (p24) levels in the harvested cell culture media were determined by an EIA method as described by the manufacturer (SAIC; Frederick, Md.). Before infection, target cells (293 and 293/T) were plated in cell culture media. Control infections were performed using cell culture media from mock transfections (no DNA) or transfections containing the resistance test vector plasmid DNA without the envelope expression plasmid. One to three or more days after infection, the media was removed and cell lysis buffer (Promega) was added to each well. Cell lysates were assayed for luciferase activity (FIG. 3). The inhibitory effect of the drug was determined using the following equation:
(§3) % luciferase inhibition=1−(RLUluc[drug]÷RLUluc)×100
(§4) where RLUluc [drug] is the Relative Light Unit of luciferase activity in infected cells in the presence of drug, and RLUluc is the Relative Light Unit of luciferase activity in infected cells in the absence of drug. IC50values were obtained from the sigmoidal curves that were generated from the data by plotting the percent inhibition of luciferase activity vs. the log10 drug concentration. The percent luciferase stimulation is the negative of the % inhibition calculated using the formula above.
The M230L mutation was introduced into a wild-type (drug sensitive) resistance test vector using the mega-primer method for site-directed mutagenesis (Sakar and Sommar, Ibid.). The resulting resistance test vector containing the M230L mutation (M230L-RTV) was then tested using the phenotypic assay described earlier, and the results were compared to those determined using a genetically defined resistance test vector that was wild type at position 230. We determined the pattern of phenotypic susceptibility to the NNRTIs, delavirdine, nevirapine and efavirenz, in the M230L-RTV. […]

Assay [2] deals with RTV-I135T. Nature of the assay: Phenotypic susceptibility assay, RTV-I135T. Type of assay: cell-based, HIV-1. Particulars: site-directed I135T alone.
From the text: as §1, §2, §3, §4
A resistance test vector containing a single mutation, I135T, (RTV-I135T) was constructed and tested in the phenotypic assay described earlier. The results were compared to those determined using a genetically defined resistance test vector that was wild type at position 135. We determined the pattern of phenotypic susceptibility to the NNRTIs, delavirdine, nevirapine and efavirenz, in RTV-I135T.

For assay [3], the system named is RTV-I135T/V245T. The experiment in a line: Phenotypic susceptibility assay, RTV-I135T/V245T. The assay is classed as cell-based, HIV-1. Particulars: site-directed I135T + V245T.
From the text: as §1, §2, §3, §4
A resistance test vector containing two mutations, I135T and V245T (RTV-I135T/V245T) was constructed and tested in the phenotypic assay described earlier. The results were compared to those determined using a genetically defined resistance test vector that was wild type at positions 135 and 245. We determined the pattern of phenotypic susceptibility to the NNRTIs, delavirdine, nevirapine and efavirenz, in RTV-I135T/V245T.

Assay [4] relates to RTV-1033, RTV-008973, RTV-757, RTV-008980 and RTV-1080. The experiment in a line: Phenotypic susceptibility assay, patient 1033 RTV pools. Particulars: range over five RTV pools of one patient. Type of assay: cell-based, HIV.
From the text: as §1, §2, §3, §4
Resistance test vectors were constructed as described in Example 1 from virus samples obtained from an individual patient at thirteen separate time points over a 2½-year period. This patient had been previously treated with two NRTIs (zidovudine and lamivudine) AZT, 3TC (NRTIS), and a PRI (indinavir) for a period of approximately 2 years at the time the first (97-309) and second (98-754) samples were obtained. The patient began taking a new anti-viral regimen including an NRTI (stavudine), an NNRTI (nevirapine), and two PRIs (nelfinavir and saquinavir) at the time the third sample (98-1032) was obtained. […]

The test system of assay [5] is RTV-1033-3/106V/227F. The experiment in a line: Phenotypic susceptibility assay, RTV-1033-3/106V/227F. Particulars: RTV-1033-3 with V106A and F227L reverted. Type of assay: cell-based, HIV.
From the text: as §1, §2, §3, §4
A resistance test vector containing all of the mutations present in RTV-1033-3 except for V106A and F227L (RTV-1033-3/106V/227F) was constructed and tested using the phenotypic assay described earlier. The results were compared to those determined using the parent RTV-1033-3. We determined the pattern of phenotypic susceptibility to the NNRTIs, delavirdine, nevirapine and efavirenz, in the reverted vector, RTV-1033-3/106V/227F.

Assay [6] deals with RTV-1033-3/181C. Nature of the assay: Phenotypic susceptibility assay, RTV-1033-3/181C. The assay is classed as cell-based, HIV. Particulars: RTV-1033-3 plus Y181C.
From the text: as §1
Host cells were seeded in 10-cm-diameter dishes and were transfected several days after plating with resistance test vector plasmid DNA and the envelope expression vector. Transfections were performed using a calcium-phosphate precipitation procedure. […] HIV capsid protein (p24) levels in the harvested cell culture media were determined by an EIA method as described by the manufacturer (SAIC; Frederick, Md.). […] The inhibitory effect of the drug was determined using the following equation: […]
where RLUluc [drug] is the Relative Light Unit of luciferase activity in infected cells in the presence of drug, and RLUluc is the Relative Light Unit of luciferase activity in infected cells in the absence of drug. […] The percent luciferase stimulation is the negative of the % inhibition calculated using the formula above.
A resistance test vector containing all of the mutations present in RTV-1033-3, in addition to Y181C (RTV-1033-3/181C) was constructed and tested using the phenotypic assay described earlier. The results were compared to those determined using the parent RTV-1033-3. We determined the pattern of phenotypic susceptibility to the NNRTIs, delavirdine, nevirapine and efavirenz, in the mutated vector, RTV-1033-3/181C.

In assay [7] the test system is RTV-309-3/184M. The experiment in a line: Phenotypic susceptibility assay, RTV-309-3/184M. Particulars: RTV-309-3 with M184V reverted. The assay is classed as cell-based, HIV.
From the text: as §1, §2, §3, §4
A resistance test vector containing all of the mutations present in RTV-309-3 except for the M184V (RTV-309-3/184M) was constructed and tested using the phenotypic assay described earlier. The results were compared to those determined using the parent RTV-309-3. We determined the pattern of phenotypic susceptibility to the NNRTIs, delavirdine, nevirapine and efavirenz, in the reverted vector, RTV-309-3/184M.

`CC(C)Nc1cccnc1N1CCN(C(=O)c2cc3cc(NS(C)(=O)=O)ccc3[nH]2)CC1` [delavirdine]: the “drug-dependent stimulation of viral replication” value (shortened to “drug-dependent stimulation”) in assay [1] was about 50%; in assay [2], “no drug-dependent stimulation”; in assay [3], about 10%; in assay [4] it was 20 to 180%; in assay [5], about 80%; in assay [7], about 50%. Besides, the results for the “reduction in susceptibility compared to wild type control RTV” value (“reduction in susceptibility” below) in assay [1], in assay [6] and in assay [7] were 58 fold, over 250 fold and 4 fold, respectively. The figures for the “reductions in susceptibility compared to wild type control RTV” value (shortened to “reductions … to wild type control RTV”) in assay [2], in assay [3] and in assay [5] were “no reductions”, 2.5 fold and 6 fold, respectively. Also, in assay [4], the reductions in susceptibility was in the range of 3 to 18 fold.

Turning to `O=C1Nc2ccc(Cl)cc2[C@@](C#CC2CC2)(C(F)(F)F)O1` [efavirenz], the “drug-dependent stimulation” value in assay [1] is given as “not”; in assay [2], “no drug-dependent stimulation”; in assay [3], “no drug-dependent stimulation”; in assay [4], 30 to 170%; in assay [5], about 80%; in assay [6], about 100%. The “drug-dependent stimulation” value in assay [7] is on record as about 60%. Further, the “reduction in susceptibility” value in assay [1] is 23 fold; in assay [6] it was over 450 fold; in assay [7], 5 fold. Moreover, the figures for the “reductions … to wild type control RTV” value in assay [2], in assay [3] and in assay [5] were “no reductions”, 2.4 fold and 6 fold, respectively. In assay [4], the reductions in susceptibility is listed as 16 to 300 fold.

Take `Cc1ccnc2c1NC(=O)c1cccnc1N2C1CC1` [nevirapine]: the “drug-dependent stimulation” value in assay [1] is reported as about 50%; in assay [2] it was “no drug-dependent stimulation”; in assay [3], about 10%; in assay [4], 40 to 250%; in assay [5], about 110%; in assay [7], about 80%. In addition, the “reduction in susceptibility” value in assay [1] was 39 fold and 40 fold; in assay [6] it was over 600 fold; in assay [7] it was 9 fold. The “reductions … to wild type control RTV” value is recorded as “no reductions” in assay [2], 4 fold in assay [3] and 13 fold in assay [5]. Further, in assay [4], the reductions in susceptibility is listed as over 600 fold.

Values taken from patent publication US6653081B2, “Methods for monitoring antiretroviral therapy and guiding therapeutic decision in the treatment of HIV/AIDS” (ViroLogic, Inc., priority 2000, dated 2003).
